{
  "source": "patent US6576633B1",
  "about": "“Stable liquid antimicrobial suspension compositions containing quarternaries prepared from hexamethylenetetramine and certain halohydrocarbons” (The Dow Chemical Company, priority 1996, dated 2003)",
  "origin": "cited, not measured here",
  "conditions": "conventional 30 percent aqueous solution; within one month",
  "data": [
    {"compound": "ClC=CC[N+]12CN3CN(CN(C3)C1)C2.[Cl-]", "note": "[cis-compound, 1-(3-chloroallyl)-3,5,7-triaza-1-azoniaadamantane chloride]", "values": [
      {"measurement": "chemical degradation", "result": "~30", "unit": "%"}
    ]},
    {"compound": "ClC=CC[N+]12CN3CN(CN(C3)C1)C2.[Cl-]", "note": "(mixture of isomers) [cis/trans-compound, 1-(3-chloroallyl)-3,5,7-triaza-1-azoniaadamantane chloride]", "values": [
      {"measurement": "chemical degradation", "result": "~30", "unit": "%"}
    ]}
  ]
}
